Assay [1] has as its system tobacco cutworm (Spodoptera litura) larvae. Nature of the assay: Test against tobacco cutworm (Spodoptera litura) larvae, leaf dip. As to conditions: active compound concentration of 100 ppm; third-instar larvae on sweet potato leaves; after 7 days. In kind it is in vivo. Here is the method:
(§1) Unless not mentioned otherwise, the test solutions were prepared as follows:
(§2) Containing as solvent: Dimethylformamide, 3 parts by weight; and as emulsifier: Polyoxyethylene alkyl phenyl ether, 1 part by weight
(§3) To prepare the test solution, 1 part by weight of an active compound is mixed with the above-mentioned amount of solvent containing the above-mentioned amount of emulsifier, and the mixture is diluted with water to the desired concentration.
The leaves of sweet potato were immersed in the test solution at the appropriate concentration, and the leaves were dried in air. The leaves were then placed in a petri dish having a diameter of 9 cm, and ten third-instar larvae of tobacco cutworm were released therein. The petri dish was placed in a temperature-controlled chamber at 25° C. After 2 days and 4 days sweet potato leaves were additionally added. After 7 days, the number of dead larvae was counted to calculate the insecticidal activity. An insecticidal activity of 100% means that all larvae were killed, whereas an insecticidal activity of 0% means that no larva was killed. In the current test, the results of two petri dishes for each partition were averaged.

Assay [2] relates to cucurbit leaf beetle (Aulacophora femoralis). Nature of the assay: Test against cucurbit leaf beetle (Aulacophora femoralis), leaf dip. It is filed as in vivo. As to conditions: active compound concentration of 100 ppm; second-instar larvae on cucumber leaves; after 7 days. As for the experimental part: as §1, §2, §3
Cucumber leaves were immersed in the test solution at the appropriate concentration, and the leaves were dried in air. The leaves were then placed in a plastic cup containing sterilized black soil, and five second-instar larvae of cucurbit leaf beetle were released therein. The plastic cup was placed in a temperature-controlled chamber at 25° C. After 7 days, the number of dead larvae was counted, and thus the insecticidal activity was calculated. An insecticidal activity of 100% means that all beetles were killed, whereas an insecticidal activity of 0% means that no beetle was killed.

On to `CCc1cc(C(Oc2cccc(Cl)c2)(C(F)(F)F)C(F)(F)F)cc(C)c1NC(=O)c1cccc(NC(=O)c2cccnc2Cl)c1` [1-108], for which the insecticidal activity in assay [1] and in assay [2] was 100% in each case. With `Cc1cc(C(n2cc(I)c(C(F)(F)F)n2)(C(F)(F)F)C(F)(F)F)cc(C)c1NC(=O)c1cccc(NC(=O)c2cccnc2Cl)c1` [2-119], the insecticidal activity in assay [2] is reported as 100%. With `CCc1cc(C(Oc2ccc(Br)cc2)(C(F)(F)F)C(F)(F)F)cc(C)c1NC(=O)c1cccc(NC(=O)c2cccnc2Cl)c1` [1-129], the insecticidal activity in assay [1] and in assay [2] was 100% in each case. As to `C#CCOC(c1cc(I)c(NC(=O)c2cccc(NC(=O)c3ccccc3)c2)c(I)c1)(C(F)(F)F)C(F)(F)F` [1-79], the insecticidal activity in assay [1] and in assay [2] was 100% each time.

Take `CC#CCOC(c1cc(I)c(NC(=O)c2cccc(NC(=O)c3ccc(F)cc3)c2)c(I)c1)(C(F)(F)F)C(F)(F)F` [1-84]: the insecticidal activity in assay [1] and in assay [2] was 100% in each case. With `Cc1cc(C(n2nccn2)(C(F)(F)F)C(F)(F)F)cc(C)c1NC(=O)c1cccc(NC(=O)c2cccnc2Cl)c1` [2-147], the insecticidal activity in assay [1] and in assay [2] was 100% in each case.

Turning to `Cc1cc(C(n2c(Br)nc(Br)c2Br)(C(F)(F)F)C(F)(F)F)cc(C)c1NC(=O)c1cccc(NC(=O)c2cccnc2Cl)c1` [2-144], the insecticidal activity in assay [1] and in assay [2] was 100% each time. `CCc1cc(C(Oc2ccc(Cl)c(Cl)c2)(C(F)(F)F)C(F)(F)F)cc(C)c1NC(=O)c1cccc(NC(=O)c2cccnc2Cl)c1` [1-151]: the insecticidal activity in assay [1] and in assay [2] was 100% each time. For `Cc1cc(C(n2ccc(Cl)n2)(C(F)(F)F)C(F)(F)F)cc(C)c1NC(=O)c1cccc(NC(=O)c2cccnc2Cl)c1` [2-7], in assay [2], the insecticidal activity was 100%. Turning to `CCc1cc(C(Oc2ccc(Cl)cc2)(C(F)(F)F)C(F)(F)F)cc(CC)c1NC(=O)c1cccc(NC(=O)c2cccnc2Cl)c1` [1-176], the insecticidal activity in assay [1] and in assay [2] was 100% in each case. Consider `CCc1cc(C(n2cc(Cl)cn2)(C(F)(F)F)C(F)(F)F)cc(C)c1NC(=O)c1cccc(NC(=O)c2cccnc2F)c1` [2-44], for which the insecticidal activity in assay [1] and in assay [2] was 100% throughout. Take `CCc1cc(C(n2cc(Br)cn2)(C(F)(F)F)C(F)(F)F)cc(C)c1NC(=O)c1cccc(NC(=O)c2cccnc2Cl)c1` [2-87]: the insecticidal activity in assay [1] and in assay [2] was 100% throughout. Turning to `Cc1cc(C(n2cc(Cl)cn2)(C(F)(F)F)C(F)(F)F)cc(Br)c1NC(=O)c1cccc(NC(=O)c2ccccc2F)c1` [2-31], the insecticidal activity in assay [1] and in assay [2] was 100% in each case. Take `CCc1cc(C(N2CC=CCC2)(C(F)(F)F)C(F)(F)F)cc(C)c1NC(=O)c1cccc(NC(=O)c2cccnc2Cl)c1` [2-180]: the insecticidal activity in assay [1] and in assay [2] was 100% each time.

Turning to `CCc1cc(C(n2nc(Br)c(Br)c2Br)(C(F)(F)F)C(F)(F)F)cc(C)c1NC(=O)c1cccc(NC(=O)c2cccnc2Cl)c1` [2-134], the insecticidal activity in assay [1] and in assay [2] was 100% each time. Turning to `CCc1cc(C(n2cnc(Cl)n2)(C(F)(F)F)C(F)(F)F)cc(C)c1NC(=O)c1cccc(NC(=O)c2cccnc2Cl)c1` [2-183], the insecticidal activity in assay [1] and in assay [2] was 100% throughout. Take `CCc1cc(C(Oc2ccc(C(F)(F)F)cc2)(C(F)(F)F)C(F)(F)F)cc(C)c1NC(=O)c1cccc(NC(=O)c2cccnc2Cl)c1` [1-130]: the insecticidal activity in assay [1] and in assay [2] was 100% throughout. For the compound `O=C(Nc1c(Br)cc(C(n2cc(Cl)cn2)(C(F)(F)F)C(F)(F)F)cc1Br)c1cccc(NC(=O)c2ccccc2F)c1` [2-33], the insecticidal activity in assay [1] and in assay [2] was 100% each time. On to `O=C(Nc1c(I)cc(C(n2cc(Cl)cn2)(C(F)(F)F)C(F)(F)F)cc1I)c1cccc(NC(=O)c2ccccc2F)c1` [2-34], for which the insecticidal activity in assay [1] and in assay [2] was 100% each time. Consider `CCc1cc(C(Oc2ccc(Cl)cn2)(C(F)(F)F)C(F)(F)F)cc(C)c1NC(=O)c1cccc(NC(=O)c2cccnc2Cl)c1` [1-173], for which the insecticidal activity in assay [1] and in assay [2] was 100% throughout.

For `Cc1cc(C(n2cnc(Cl)c2Cl)(C(F)(F)F)C(F)(F)F)cc(C)c1NC(=O)c1cccc(NC(=O)c2cccnc2Cl)c1` [2-143], the insecticidal activity in assay [1] and in assay [2] was 100% throughout. Regarding `CCc1cc(C(Oc2cccnc2)(C(F)(F)F)C(F)(F)F)cc(C)c1NC(=O)c1cccc(NC(=O)c2cccnc2Cl)c1` [1-171], the insecticidal activity in assay [1] and in assay [2] was 100% throughout. Take `Cc1cc(C(n2cnc(C(F)(F)F)n2)(C(F)(F)F)C(F)(F)F)cc(C)c1NC(=O)c1cccc(NC(=O)c2cccnc2Cl)c1` [2-153]: the insecticidal activity in assay [1] and in assay [2] was 100% throughout. `CC#CCOC(c1cc(I)c(NC(=O)c2cccc(NC(=O)c3cccnc3Cl)c2)c(I)c1)(C(F)(F)F)C(F)(F)F` [1-85]: the insecticidal activity in assay [1] and in assay [2] was 100% each time. On to `Cc1cc(C(n2cc(Cl)cn2)(C(F)(F)F)C(F)(F)F)cc(Br)c1NC(=O)c1cccc(NC(=O)c2c(F)cccc2F)c1` [2-41], for which the insecticidal activity in assay [1] and in assay [2] was 100% in each case. On to `CCCOC(c1cc(I)c(NC(=O)c2cccc(NC(=O)c3ccc(C)nc3Cl)c2)c(I)c1)(C(F)(F)F)C(F)(F)F` [1-63], for which the insecticidal activity in assay [1] is 100%.

`CCc1cc(C(n2cc(Cl)cn2)(C(F)(F)F)C(F)(F)F)cc(C)c1NC(=O)c1cccc(NC(=O)c2ccc(F)cc2)c1` [2-36] displayed an insecticidal activity in assay [1] of 100%. `CCc1cc(C(Oc2ccc(C#N)cc2)(C(F)(F)F)C(F)(F)F)cc(C)c1NC(=O)c1cccc(NC(=O)c2cccnc2Cl)c1` [1-168]: the insecticidal activity in assay [1] and in assay [2] was 100% each time. Consider `Cc1cc(C(n2ccc(C(F)(F)C(F)(F)F)n2)(C(F)(F)F)C(F)(F)F)cc(C)c1NC(=O)c1cccc(NC(=O)c2cccnc2Cl)c1` [2-107], for which the insecticidal activity in assay [1] came to 100%. As to `O=C(Nc1c(Br)cc(C(c2ccccc2)(n2ccc(C(F)(F)F)n2)C(F)(F)F)cc1Br)c1cccc(NC(=O)c2cccnc2Cl)c1` (single isomer, unassigned) [2-100], the insecticidal activity in assay [2] was 100%.

In assay [1], `CCc1cc(C(ON=Cc2ccc(OC)cc2)(C(F)(F)F)C(F)(F)F)cc(C)c1NC(=O)c1cccc(NC(=O)c2cccnc2Cl)c1` [1-150] showed an insecticidal activity of 100%. In assay [1], `CCc1cc(C(Oc2ccc(Cl)nc2)(C(F)(F)F)C(F)(F)F)cc(C)c1NC(=O)c1cccc(NC(=O)c2cccnc2Cl)c1` [1-181] registered an insecticidal activity of 100%. Consider `Cc1cc(C(n2ncnn2)(C(F)(F)F)C(F)(F)F)cc(C)c1NC(=O)c1cccc(NC(=O)c2cccnc2Cl)c1` [2-154], for which, in assay [1], the insecticidal activity is listed as 100%. In turn, `Cc1cc(C(Oc2ccnc(C(F)(F)F)c2)(C(F)(F)F)C(F)(F)F)cc(C)c1NC(=O)c1cccc(NC(=O)c2cccnc2Cl)c1` [1-111] showed an insecticidal activity in assay [1] of 100%. The compound `CCc1cc(C(n2cc(Cl)cn2)(C(F)(F)F)C(F)(F)F)cc(C)c1NC(=O)c1cccc(NC(=O)c2cccc(F)c2F)c1` [2-37] displayed an insecticidal activity in assay [1] of 100%. Regarding `CCc1cc(C(n2cc(Cl)cn2)(C(F)(F)F)C(F)(F)F)cc(C)c1NC(=O)c1cccc(NC(=O)c2cc(F)ccc2F)c1` [2-39], in assay [1], the insecticidal activity is 100%. In turn, `Cc1cc(C(n2ccc(C(F)(F)F)n2)(C(F)(F)F)C(F)(F)F)cc(C)c1NC(=O)c1cccc(NC(=O)c2cccnc2F)c1` [2-98] showed an insecticidal activity in assay [1] of 100%. As for `Cc1cc(C(n2ccc(C(Cl)Cl)n2)(C(F)(F)F)C(F)(F)F)cc(C)c1NC(=O)c1cccc(NC(=O)c2cccnc2Cl)c1` [2-106], the insecticidal activity in assay [1] is recorded as 100%.

Regarding `CCc1cc(C(Oc2ccccc2)(C(F)(F)F)C(F)(F)F)cc(C)c1NC(=O)c1cccc(NC(=O)c2cccnc2Cl)c1` [1-105], the insecticidal activity in assay [2] is given as 100%.

In assay [1], `Cc1cc(C(n2ccc(Br)n2)(C(F)(F)F)C(F)(F)F)cc(C)c1NC(=O)c1cccc(NC(=O)c2cccnc2Cl)c1` [2-76, N-[3-({4-[2-(3-bromo-1H-pyrazol-1-yl)-1,1,1,3,3,3-hexafluoropropan-2-yl]-2,6-dimethylphenyl}carbamoyl)phenyl]-2-chloropyridine-3-carboxamide] came in with an insecticidal activity of 100%. In the case of `CCc1cc(C(n2cncn2)(C(F)(F)F)C(F)(F)F)cc(C)c1NC(=O)c1cccc(NC(=O)c2cccnc2Cl)c1` [2-149], the insecticidal activity in assay [1] is recorded as 100%.

`Cc1cc(C(n2cc(I)cn2)(C(F)(F)F)C(F)(F)F)cc(C)c1NC(=O)c1cccc(NC(=O)c2cccnc2Cl)c1` [2-95]: the insecticidal activity in assay [1] is 100%.

Source of the values: US20110201603A1, “Novel Acylaminobenzamide Derivatives” (Bayer CropScience AG, priority 2008, published 2011).
